According to patent publication EP2292587A1, “PHARMACEUTICAL COMPOSITION FOR INHIBITING THE TRANSCRIPTION FACTOR INDUCIBLE BY HYPOXIA, MODULATORS OF PATHOLOGICAL PROCESSES OF ANGIOGENESIS, ONCOGENESIS, INFLAMMATION, APOPTOSIS, AND CELLULAR THERAPY” (Fundacion De La Comunidad Valenciana Centro De …, priority 2008, dated 2009):
Entries after “also recorded” stand apart in the source; their conditions may differ.

Legend:
HIF-1α = assay: Western blot of HIF-1alpha in dental pulp stem cells; format: cell-based, human; conditions: 0.5 µM, physical hypoxia
From the text: The culture medium used was Low-Glucose DMEM supplemented with 10% fetal bovine serum. The human dental pulp mesenchymal stem line [Gronthos S, et al., "Postnatal human dental pulp stem cells (DPSCs) in vitro and in vivo" Proc Natl Acad Sci U S A, 2000 Dec 5; 97(25):13625-30.; Gronthos S et al.,." Stem cell properties of human dental pulp stem cells" J Dent Res, 2002 Aug; 81(8):531-5], obtained from human third molars from adults (19-29 years of age), was provided by the Cardioregeneration Dept. of the CIPF. The cells were seeded at a density of 2000 cells/cm^2, and when they reached a 90% confluence they were subcultured again by means of trypsinization.
The dental pulp cells were seeded at 2000 cells/cm^2 in 21 cm^2 plates. […]

PHD3 and VEGF = assay: qPCR of PHD3 and VEGF in primary culture of epNSCs; format: cell-based, rat; conditions: 500 nM, hypoxia (1% O2), 6 to 24 hours
From the text: Adult Wistar rats of between 2 to 3 months of age were used (the animals were handled following the mode of action which complies with section 2.1 (acceptable methods of euthanasia) of the document prepared for the DGXI of the European Commission regarding the protection of animals used for experimentation and other scientific purposes (No. L358, ISSN 0378-6978) and after the approval of the protocols by the Committee for Animal Care and Wellbeing of the Centro de Investigación Principe Felipe, Valencia, SPAIN). Once the animals were sacrificed, the dorsal part of the spinal cord was dissected and the tissue was maintained, at 4°C, in washing medium (DPBS-glucose) for its processing. To reduce the percentage of connective tissue cells the meninges as well as the most superficial blood vessels were removed. […]
Total RNA was isolated using the commercial kit RNAeasy (Qiagen) and following the manufacturer's instructions. […] The quantitative polymerase chain reaction (qPCR) was carried out using Taqman probes and primers designed by Applied Biosystem for rVEGF (Ref Rn00582935_m1), rPHD3 (Ref Rn00571341_m1) and rGAPDH (Ref Rn01775763_g1). […] The expression levels of VEGF and PHD3 were expressed as the increase of Ct with respect to the expression levels of GAPDH (constitutive expression gene): Ct (ΔCt)=Ct (VEGF or PHD3)-Ct (GAPDH). […]

MLH1 and MSH6 = assay: Western blot of mismatch repair proteins and acetyllysine in C17.2 neural stem cells; format: cell-based, mouse; conditions: 500 nM; for expression of the repair proteins (MMRs: MLH1, MSH6): normoxia or hypoxia
From the text: According to the results obtained, the C17.2 neural stem cell subjected to hypoxia experienced repression in the DNA repair (mismatch repair, MMR) system. […] The monoclonal anti MLH1 and MSH6 antibodies were used in the analysis, Nx referring to normoxia and Hx to hypoxia.
The monoclonal antibodies anti-acetyllysine, anti-MLH1 and MSH6 as well as against beta-actin used as a loading control were used in the analysis; wherein Nx refers to Normoxia and Hx to hypoxia.

Cc1ccc(C(=O)COC(=O)c2cccc(NC(=O)c3ccc([N+](=O)[O-])cc3[N+](=O)[O-])c2)cc1 [FM19G11, 2-oxo-2-(p-tolyl)ethyl 3-((2,4-dinitro)benzamido)benzoate]
expression of HIF-1α (HIF-1α): inhibited
increase of both PHD3 and VEGF (mRNA) (PHD3 and VEGF): significantly inhibited
overall degree of acetylation of different proteins (anti-acetyllysine) (MLH1 and MSH6): increases the overall degree of acetylation
expression of the repair proteins (MMRs: MLH1, MSH6) (MLH1 and MSH6): capable of recovering the expression of the MMRs more effectively than TSA; also recorded: recovered
expression of the repair proteins (MMRs: MLH1, MSH6) (MLH1 and MSH6; listed as 19G11): capable of reestablishing the expression
